From US8063221B2, “Aminoquinolones as GSK-3 inhibitors” (Kyorin Pharmaceutical Co., Ltd., priority 2006, dated 2011)
Converted amounts (≈) assume the structure as drawn. Like-named read-outs stand apart in the source and are kept apart here.

Key:
S. aureus Smith = assay: Antibacterial activity (MIC), S. aureus; type: cell-based; conditions: Staphylococcus aureus
From the text: (§1) As used herein, a minimum inhibitory concentration (MIC) for bacterial growth assay is the lowest level of a compound needed to cause an inhibition to bacterial growth in culture medium. In certain embodiments, the antibacterial activity of compounds herein, measured as MIC.
(§2) In certain embodiments, GSK3 inhibitors provided herein are substantially free of antibacterial activity or having very low antibacterial activity. The antibacterial activity can be measured by methods known in the art by estimating a minimum inhibitory concentration (MIC) for test compounds. A MIC is the lowest level of a compound needed to cause an inhibition to bacterial growth in a culture medium. […] (Clinical and Laboratory Standards Institute. Methods for Dilution Antimicrobial Susceptibility Tests for Bacteria That Grow Aerobically; Approved Standard-Sixth Edition: CLSI document […]. CLSI, Wayne, Pa. (2003))
(§3) Antibacterial activity for E. coli, ATCC8739 andS. aureus Smith expressed as MIC (μM) is provided as follows: […]

E. coli, ATCC8739 = assay: Antibacterial activity (MIC), E. coli; type: cell-based; conditions: Escherichia coli, E. coli ATCC8739
From the text: as §1, §2, §3

[1] = molecular target: T1, recombinant full-length human GSK3β (Homo sapiens, UniProt P49841); assay: Luciferase-coupled cell-free GSK3β kinase assay; type: biochemical
T1 construct: recombinant full-length human GSK3β (Upstate); purchased Upstate
T1 sequence (P49841 whole entry): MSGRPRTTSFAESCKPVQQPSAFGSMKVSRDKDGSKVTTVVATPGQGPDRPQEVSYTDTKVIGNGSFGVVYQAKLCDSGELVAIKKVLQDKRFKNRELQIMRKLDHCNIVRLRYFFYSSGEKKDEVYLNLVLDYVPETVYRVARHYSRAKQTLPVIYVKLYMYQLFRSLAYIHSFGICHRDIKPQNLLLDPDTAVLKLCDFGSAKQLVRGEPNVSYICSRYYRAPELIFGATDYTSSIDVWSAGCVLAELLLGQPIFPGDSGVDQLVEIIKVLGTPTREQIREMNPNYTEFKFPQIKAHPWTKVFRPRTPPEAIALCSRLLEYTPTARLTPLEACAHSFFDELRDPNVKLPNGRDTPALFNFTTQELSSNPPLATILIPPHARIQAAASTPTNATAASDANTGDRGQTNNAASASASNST
Experimental: For compounds in Tables 1 and 2, IC50 (μM) for GSK3β enzyme in cell free assay is provided as follows:
Luciferase-Coupled Protein Kinase Assays
All coupled-luciferase assays are performed by using a brief incubation with firefly luciferase (Promega) after completion of the kinase assay. KinaseGlo Plus is used for reading kinase reactions with ATP>10 μM, KinaseGlo for ATP <10 μM. The assay volume in a 384-well plate for the kinase reaction is 30 microliters.
10-25 ng of recombinant full-length human GSK3β (Upstate) is incubated in the presence or absence of compound at varying concentrations for 1 hour at 30 degrees Celsius in 20 mM MOPS, pH 7.0, 10 mM magnesium acetate, 0.2 mM EDTA, 2 mM EGTA, 30 mM magnesium chloride, 62.5 μM phospho-glycogen synthase peptide-2, 5 μM ATP, 10 mM β-glycerol phosphate, 1 mM sodium orthovanadate and 1 mM dithiothreitol. Proceed to KinaseGlo luciferase reaction (see below).
Following the completion of the kinase reaction an equal volume of KinaseGlo or KinaseGlo Plus luciferase reagent (Promega) is added and the luminescence read using a luminescence plate reader within 5-10 minutes. Compound activity is expressed as % inhibition relative to maximal inhibition observed at the maximal dose and IC50 values then calculated using curve fitting software (GraphPad Prizm).

[2] = Table 1, read-out: Antibacterial MIC (μM) S. aureus Smith
[3] = ATCC8739, Table 1, read-out: Antibacterial MIC (μM) E.Coli
[4] = Table 2, S. aureus Smith, read-out: Antimicrobial MIC [μM] S. aureus
[5] = ATCC8739, Table 2, read-out: Antimicrobial MIC [μM] E. Coli

Row | Structure (SMILES) | MIC (S. aureus Smith; [2]) | MIC (E. coli, ATCC8739; [3]) | IC50 ([1]; Table 1) | MIC (S. aureus Smith; [4]) | MIC (E. coli, ATCC8739; [5]) | IC50 ([1]; Table 2)
1 | Nc1c(F)c(NCCc2ccncc2)c(F)c2c1c(=O)c(C(=O)O)cn2C1CCCC1 [compound 53] | 10 to 50 µM (≈ 4.28 to 21.4 µg/mL) | 10 to 50 µM (≈ 4.28 to 21.4 µg/mL) | 100 to 500 nM | – | – | –
2 | C[C@H]1COc2c(NCCCN3CCCC3=O)c(F)c(N)c3c(=O)c(C(=O)O)cn1c23 [compound 23] | – | – | – | 0.5 to 10 µM (≈ 0.209 to 4.18 µg/mL) | 0.5 to 10 µM (≈ 0.209 to 4.18 µg/mL) | 100 to 500 nM
3 | Nc1c(F)c(NCCNc2ccccn2)cc2c1c(=O)c(C(=O)O)cn2C1CC1 [Example 133] | – | – | – | < 0.5 µM | 0.5 to 10 µM (≈ 0.199 to 3.97 µg/mL) | < 100 nM
4 | CC(C)OCCCNc1c(F)c(N)c2c(=O)c(C(=O)O)cn3c2c1OC[C@@H]3C [compound 21] | – | – | – | 0.5 to 10 µM (≈ 0.197 to 3.93 µg/mL) | > 50 µM | 100 to 500 nM
5 | Nc1c(F)c(NCCNc2cccc3ccccc23)c(F)c2c1c(=O)c(C(=O)O)cn2C1CC1 [compound 43] | 0.5 to 10 µM (≈ 0.232 to 4.64 µg/mL) | 0.5 to 10 µM (≈ 0.232 to 4.64 µg/mL) | < 100 nM | – | – | –
6 | CC(C)[C@@H]1COc2c(NCCNc3ccccn3)c(F)c(N)c3c(=O)c(C(=O)O)cn1c23 [compound 62] | – | – | – | 0.5 to 10 µM (≈ 0.221 to 4.41 µg/mL) | 0.5 to 10 µM (≈ 0.221 to 4.41 µg/mL) | < 100 nM
7 | CC(C)[C@H]1COc2c(NCCCn3ccnc3)c(F)c(N)c3c(=O)c(C(=O)O)cn1c23 [compound 54] | – | – | – | 10 to 50 µM (≈ 4.29 to 21.5 µg/mL) | > 50 µM | < 100 nM
8 | CC1(C)Cn2cc(C(=O)O)c(=O)c3c(N)c(F)c(NCCCn4cnc5ccccc54)c(c32)O1 [compound 56] | – | – | – | 10 to 50 µM (≈ 4.65 to 23.3 µg/mL) | 10 to 50 µM (≈ 4.65 to 23.3 µg/mL) | 100 to 500 nM
9 | COc1c(NCCNc2ccccc2)c(F)c(N)c2c(=O)c(C(=O)O)cn(C3CC3)c12 [compound 84] | 0.5 to 10 µM (≈ 0.213 to 4.26 µg/mL) | 10 to 50 µM (≈ 4.26 to 21.3 µg/mL) | 100 to 500 nM | – | – | –
10 | COc1c(NCCNc2ccc(C(=O)O)cn2)c(F)c(N)c2c(=O)c(C(=O)O)cn(C3CC3)c12 [Example 138] | – | – | – | > 50 µM | > 50 µM | < 100 nM
11 | CC1(C)COc2c(NCCCn3ccnc3)c(F)c(N)c3c(=O)c(C(=O)O)cn(c23)C1 [compound 26] | – | – | – | 10 to 50 µM (≈ 4.29 to 21.5 µg/mL) | 10 to 50 µM (≈ 4.29 to 21.5 µg/mL) | < 100 nM
12 | Nc1c(F)c(NCCc2c[nH]c3ccccc23)c(F)c2c1c(=O)ccn2C1CC1 [compound 28] | > 50 µM | > 50 µM | 100 to 500 nM | – | – | –
13 | CC1COc2c(NCCNc3cc(F)cc(F)n3)c(F)c(N)c3c(=O)c(C(=O)O)cn1c23 (stereo not drawn) [compound 15] | – | – | – | 0.5 to 10 µM (≈ 0.225 to 4.49 µg/mL) | 0.5 to 10 µM (≈ 0.225 to 4.49 µg/mL) | < 100 nM
14 | Nc1c(F)c(NCCCc2ccccc2)c(F)c2c1c(=O)ccn2C1CCCC1 [compound 72] | 10 to 50 µM (≈ 3.97 to 19.9 µg/mL) | 10 to 50 µM (≈ 3.97 to 19.9 µg/mL) | < 100 nM | – | – | –
15 | CC(C)(C)OC(=O)NCCNc1c(F)c(N)c2c(=O)c(C(=O)O)cn(C3CC3)c2c1F [compound 21] | 0.5 to 10 µM (≈ 0.219 to 4.38 µg/mL) | 0.5 to 10 µM (≈ 0.219 to 4.38 µg/mL) | 500 to 1000 nM | – | – | –
16 | Nc1c(F)c(NCCCn2ccnc2)c(F)c2c1c(=O)c(C(=O)O)cn2CCc1ccccc1 [compound 48] | > 50 µM | > 50 µM | < 100 nM | – | – | –
17 | O=C(O)c1cn(C2CC2)c2c(F)c(NCCNc3ccccn3)c(F)c(S)c2c1=O [Example 131] | – | – | – | 0.5 to 10 µM (≈ 0.216 to 4.32 µg/mL) | 0.5 to 10 µM (≈ 0.216 to 4.32 µg/mL) | < 100 nM
18 | COc1c(NCCCc2ccccc2)c(F)c(N)c2c(=O)c(C(=O)O)cn(C3CC3)c12 [compound 67] | 0.5 to 10 µM (≈ 0.213 to 4.25 µg/mL) | 10 to 50 µM (≈ 4.25 to 21.3 µg/mL) | < 100 nM | – | – | –
19 | C[C@H]1COc2c(NCCCC3CCCCC3)c(F)c(N)c3c(=O)c(C(=O)O)cn1c23 [Example 103] | – | – | – | 10 to 50 µM (≈ 4.17 to 20.9 µg/mL) | 10 to 50 µM (≈ 4.17 to 20.9 µg/mL) | < 100 nM
20 | COc1c(OCCNc2ccccn2)c(F)c(N)c2c(=O)c(C(=O)O)cn(C3CC3)c12 [Example 132] | – | – | – | < 0.5 µM | 0.5 to 10 µM (≈ 0.214 to 4.28 µg/mL) | > 1000 nM
21 | CC1(C)Cn2cc(C(=O)O)c(=O)c3c(N)c(F)c(NCCCc4ccccc4)c(c32)O1 [compound 59] | – | – | – | 10 to 50 µM (≈ 4.25 to 21.3 µg/mL) | 10 to 50 µM (≈ 4.25 to 21.3 µg/mL) | 100 to 500 nM
22 | COc1c(NCCNc2ccccn2)c(F)c(N)c2c(=O)c(C(=O)O)cn(C)c12 [Example 129] | – | – | – | 10 to 50 µM (≈ 4.01 to 20.1 µg/mL) | 10 to 50 µM (≈ 4.01 to 20.1 µg/mL) | 100 to 500 nM
23 | Nc1c(F)c(NCCNc2ccccn2)c(F)c2c1c(=O)cc(C(=O)O)n2C1CC1 [Example 136] | – | – | – | > 50 µM | > 50 µM | > 1000 nM
